Experimental data reported in patent US20250009885A1, “INJECTABLE PHARMACEUTICAL FORMULATIONS OF LEFAMULIN” (NABRIVA THERAPEUTICS GMBH, priority 2015, published 2025).

Tests used:
Format in all cases: physicochemical
[1] = Solubility of BC-3781 acetate in various media
Source text: The solubility of BC-3781 acetate in various media is as follows: […]

[2] = pKa value measured
[3] = Stability at physiological pH; conditions: pH 6.8 to 7.4
Source text: Reported local tolerability issues are often linked to insufficient solubity of the compound at physiological pH which, however, is not the case for BC-3781.

| Structure (SMILES) | solubility ([1]; aqueous buffer, pH 7.4 (300 mM phosphate buffer)) | solubility ([1]; water) | pKa [2] | Stability at physiological pH [3] |
| --- | --- | --- | --- | --- |
| C=C[C@]1(C)C[C@@H](OC(=O)CS[C@@H]2CC[C@@H](N)C[C@H]2O)[C@]2(C)[C@H](C)CC[C@]3(CCC(=O)[C@H]32)[C@@H](C)[C@@H]1O [BC-3781 acetate, 14-O-{[(1R, 2R, 4R)-4-amino-2-hydroxy-cyclohexylsulfanyl]-acetyl}-mutilin] | ≥ 100 mg/mL | ≥ 100 mg/mL |  |  |
| C=C[C@]1(C)C[C@@H](OC(=O)CS[C@@H]2CC[C@@H](N)C[C@H]2O)[C@]2(C)[C@H](C)CC[C@]3(CCC(=O)[C@H]32)[C@@H](C)[C@@H]1O [BC-3781, 14-O-{[(1R, 2R, 4R)-4-amino-2-hydroxy-cyclohexylsulfanyl]-acetyl}-mutilin] |  |  | 9.41 | excellent stability |
